Measured values published in PubChem BioAssay AID1996.
Values after ≈ are worked out from the molar mass of the structure shown.

Conditions: buffer; pH 7.4; 200.0 µM

solubility kinetic [µg/mL] | Structure (SMILES)
1 | COc1ccc2cc(C(=O)NCc3ccccc3)[nH]c2c1.Cl
2 (≈ 7.71 µM) | O=S(=O)(c1ccccc1)N1CCc2ccccc21
46.7 (≈ 138 µM) | CCC(C)N1CCN(S(=O)(=O)c2ccc(NC(C)=O)cc2)CC1 (configuration not stated)
> 39.8 | O=S(=O)(Cc1ccccc1)Nc1ccc(F)cc1
> 52.1 | Cc1ccc(O)c(NC(=O)c2ccccc2-c2ccccc2C(=O)O)c1
> 50.8 | CC(=O)NCC(=O)NNC1CC(=O)N(c2cccc(Cl)c2)C1=O (configuration not stated)
> 43.4 | CN1CCN(S(=O)(=O)c2csc(C(N)=O)c2)CC1
< 0.4 | COc1ccc(/C=C2\SC(=N)N(c3ccc(F)cc3)C2=O)cc1
6.9 (≈ 21.9 µM) | O=C(Nc1ccc(N2CCCCC2)cc1)c1ccc([N+](=O)[O-])o1
> 52.4 | CC(C(=O)N1CCc2ccccc21)N1CCN(Cc2ccccc2)CC1 (configuration not stated)
> 43.2 | Cc1cc([N+](=O)[O-])nn1CC(=O)NC(C)c1ccccc1 (configuration not stated)
5.4 (≈ 18.7 µM) | S=C(/N=c1/sccn1Cc1ccccc1)NC1CC1
4.8 (≈ 15.9 µM) | O=C(Nc1nc2cc3c(cc2s1)OCCO3)c1ccco1
1.5 (≈ 5.13 µM) | COc1ccc(/C=C/C(=O)NC2=NCCS2)cc1OC
41.2 (≈ 148 µM) | CCN1CCN(C(=O)CSc2ccc(C)cc2)CC1
< 0.3 | Cc1cc(N2CCCCC2)nc2c(C)cccc12
30.9 (≈ 112 µM) | CC(C)(C)c1ccccc1NC(=S)NC1CCCC1
< 0.6 | CCOC(=O)c1ccc(-c2ccc3c(c2)CCC3)nc1C
> 45.4 | C/C(=C\c1ccccc1)CN1CCN(C(C)C)C(CCO)C1 (configuration not stated)
> 52.7 | CC(C)(C)C(=O)Nc1ccc(S(=O)(=O)NC2=NCCCCC2)cc1
0.5 (≈ 1.49 µM) | CN(C1CCCCC1)S(=O)(=O)c1ccc(-c2ccccn2)s1
27.6 (≈ 82.8 µM) | CCOCCCNC(=O)c1cc2c(s1)-c1ccccc1SC2
> 47.6 | CCN1CCN(CCc2nc3cc([N+](=O)[O-])ccc3n2C)CC1

solubility kinetic [µg/mL] | Structure (SMILES)
> 55 | COc1ccc(CNC(=O)C2CCN(C(=O)Cc3ccccc3)CC2)cc1
14 (≈ 46.5 µM) | Cc1ccc(CN2C(=O)CSC2c2ccccc2F)cc1 (configuration not stated)
> 59 | Cl.O=C(CCN1CCOCC1)NNC(=O)c1ccc(Cl)c([N+](=O)[O-])c1
40.7 (≈ 134 µM) | CCOC(=O)c1c(N)sc(C(=O)Nc2ccccc2)c1C
37.9 | Cl.c1ccc(-c2ccc(CNC3CC3)cc2)cc1
> 40.6 | Cc1ccccc1NC(=O)CN1CCOCC1.Cl
46.3 (≈ 148 µM) | O=C(O)c1[nH]c2ccccc2c1C=NCc1ccccc1Cl
> 44 | COc1ccc(CCNC(=O)[C@@H](NC(N)=O)C(C)C)cc1
29.7 (≈ 114 µM) | Cc1ccnc(SCc2ccc([N+](=O)[O-])cc2)n1
> 49.4 | CC1(C)Cc2cccc(OCC(=O)NCc3ccccc3F)c2O1
< 0.2 | Cc1cccc2c(SCC(N)=O)nc(-c3ccccc3)nc12
> 53.9 | COc1ccc(OCC(O)CN(C)C(=O)C(C)Oc2ccccc2)cc1 (configuration not stated)
> 56.2 | CCN(CC)C(=O)CSc1nnc(SC(C)C(=O)NC2CC2)s1 (configuration not stated)
> 65.9 | Cc1ccc(NS(=O)(=O)c2ccccc2[N+](=O)[O-])cc1S(=O)(=O)N1CCCCC1
2.2 (≈ 8.67 µM) | Cc1cc(CSCc2ccc(Cl)cc2)no1
> 52.4 | CC(=O)Nc1ccc(S(=O)(=O)Nc2ccc(C)c([N+](=O)[O-])c2)cc1
1.6 (≈ 5.1 µM) | COC(=O)c1cn(C(=O)c2ccc(Cl)cc2)c2ccccc12
> 57.5 | Cn1c(SCC(=O)Nc2ccc3c(c2)OCCO3)nnc1-c1ccncc1
2.4 (≈ 6.48 µM) | COc1ccc(NC(=S)N2CCC(Cc3ccccc3)CC2)cc1OC
33 (≈ 131 µM) | Cc1cc(C(=O)Nc2cccc3ccccc23)co1
7.9 (≈ 25.6 µM) | Cn1c2ccc(F)cc2c2ncn(Cc3ccccn3)c(=O)c21
40.6 (≈ 142 µM) | O=C1CCCCC1Sc1ccc(Cl)cc1[N+](=O)[O-] (configuration not stated)
> 51.2 | COc1ccc2nc(SCC(=O)NCCc3ccccc3)[nH]c2c1

solubility kinetic [µg/mL] | Structure (SMILES)
> 51.9 | CC1CN(C(=O)COC(=O)c2cc(Cl)ccc2Cl)CC(C)O1 (configuration not stated)
29.1 (≈ 88.6 µM) | COCc1cc(C)nc(SCC(=O)Oc2ccccc2)c1C#N
> 44.4 | N#Cc1ccccc1OCC(=O)NNC(=O)c1ccncc1
4.2 (≈ 9.54 µM) | COc1cccc(OC)c1C(=O)Nc1ccc(Br)c(C(=O)c2ccccc2)c1
3.3 (≈ 10.2 µM) | CNC(=O)CSc1nc(-c2ccccc2)c(-c2ccccc2)o1
3.8 (≈ 11 µM) | COc1ccc(OCC(O)CNC(=O)Nc2cc(C)cc(C)c2)cc1 (configuration not stated)
> 56.8 | O=C(Cc1ccccc1F)Nc1cccc(S(=O)(=O)N2CCOCC2)c1
51.3 (≈ 145 µM) | Cn1c(=O)c2c(O)c(C=NCc3ccccc3)c(=O)n(C)c2n(C)c1=O
> 44.6 | O=S1(=O)N=C2CCCCCN2C(c2ccc(F)cc2)N1 (configuration not stated)
1 (≈ 3.42 µM) | CCOc1ccc(NC(=S)NC(=O)C2CCCC2)cc1
42.2 (≈ 109 µM) | O=C(Nc1ccc(N2CCOCC2)cc1N1CCOCC1)c1ccc(F)cc1
21.5 (≈ 92.6 µM) | c1ccc(-c2nccnc2-c2ccccc2)cc1
15.2 (≈ 53.5 µM) | O=C(CCCc1ccccc1)Nc1ccccc1[N+](=O)[O-]
> 53.3 | Cc1nc(=O)c(-c2ccccc2)c(C)n1-c1ccc(Br)cc1
> 43 | COCCN(CCOC)C(=O)Nc1ccc(Cl)cc1
> 50.8 | COc1ccc(S(=O)(=O)N2CCC(C(=O)NC3CC3)CC2)cc1
> 56.2 | Cc1ccc(/C=N/NC(=O)CN2CCN(Cc3ccccc3Cl)CC2)o1
2 (≈ 7.25 µM) | Cc1ccc(CONC(=O)c2ccc(Cl)cc2)cc1
13 (≈ 26.9 µM) | NS(=O)(=O)c1ccc(NC(=O)COC(=O)c2ccc(S(=O)(=O)N3CCOCC3)cc2)cc1
14 (≈ 40.9 µM) | COc1ccccc1Nc1nc(N)nc(CN2CC(C)CC(C)C2)n1 (configuration not stated)
2 (≈ 7.37 µM) | c1cncc(Nc2c3ccccc3nc3ccccc23)c1
1.9 (≈ 6.89 µM) | Cc1cc(Cl)ccc1Oc1ncnc2onc(C)c12
23.2 (≈ 77 µM) | COc1ccc(CNC(=O)c2csc3c2CCCC3)cc1

solubility kinetic [µg/mL] | Structure (SMILES)
8.4 (≈ 21.3 µM) | Cc1cc(C)cc(C(=O)NCC(=O)OCC(=O)NC2CCCc3ccccc32)c1 (configuration not stated)
> 40.4 | COc1cccc(NC(=O)CC(=O)c2ccccc2)c1
< 0.4 | COc1ccc(NC(=O)NC(c2ccccc2)c2ccccc2)c(OC)c1
1.4 (≈ 4.46 µM) | CC(C)(CNc1ccc([N+](=O)[O-])cc1Cl)N1CCOCC1
< 0.2 | CC(=O)Nc1ccc(/C=C/c2noc(-c3ccccc3O)n2)cc1
> 45 | CC(=O)N(c1cccc(Cl)c1)c1nc(C)cc(C)c1C#N
1.3 (≈ 4.4 µM) | CC(C)Oc1ccc(C(=O)Nc2nc3ccccc3[nH]2)cc1
6.5 (≈ 20.2 µM) | CCCCCn1c(=O)c(C(=O)OCC)c(Cl)c2ccccc21
6.4 (≈ 18.6 µM) | CC(C)NC(=O)c1sc2c(c1C(=O)Nc1cccnc1)CCCC2
> 58.3 | COc1ccccc1NS(=O)(=O)c1ccc(C(=O)N2CCCCCC2)cc1
> 49.9 | CCCN(CC(=O)Nc1ccccc1OC)C(=O)CC1CCCC1
8.2 (≈ 24.8 µM) | CC(=O)Nc1ccc2c(c1)C(=O)N(c1cccc3ccccc13)C2=O
> 46.2 | Cl.N#C/C=C/N1CCN(Cc2ccc3c(c2)OCO3)CC1
26.4 (≈ 103 µM) | N/C(=N\OC(=O)C1CC1)c1ccc([N+](=O)[O-])s1
5.6 (≈ 13.6 µM) | Cc1ccc(OCCNC(=O)CCc2nc3sc4c(c3c(=O)[nH]2)CCCC4)cc1
< 0.2 | O=C(Nc1cccc(F)c1)Nc1ccc(Cl)cn1
> 51.1 | O=C(O)CCn1c(=O)oc2cc(S(=O)(=O)N3CCCC3)ccc21
6.1 (≈ 20.5 µM) | O=C(Nc1cccc(NC(=O)c2ccco2)n1)c1ccco1
46.5 (≈ 142 µM) | CCOC(=O)C1CCCN(CC(=O)c2c[nH]c3ccc(C)cc23)C1 (configuration not stated)
3.1 (≈ 12.6 µM) | CCOC(=O)c1c(C=O)c2ccccc2n1CC
3.1 (≈ 8.23 µM) | Cc1ccc(C)c(NC(=O)CN(C)C(=O)COc2ccc3ccccc3c2)c1
6.7 (≈ 22.8 µM) | Cc1ccc(SCCSc2nc(N)cc(=O)[nH]2)cc1
> 50.6 | Cn1c(N)c(C(=O)COC(=O)CCC2CCCC2)c(=O)n(C)c1=O

solubility kinetic [µg/mL] | Structure (SMILES)
> 43.6 | Cc1ccc(S(=O)(=O)NCCN2CCOCC2)s1
2.7 (≈ 7.62 µM) | COc1cc2c(cc1OC)C(C)N(C(=O)Nc1cc(C)cc(C)c1)CC2 (configuration not stated)
5.2 (≈ 16 µM) | C/C(=N\OC(=O)Nc1ccc(Cl)cc1)c1ccc(F)c(F)c1
6.7 (≈ 20.6 µM) | CC(=O)c1ccc(-c2ccc(C(=O)NC3CCCCCC3)o2)cc1
1.3 (≈ 3.97 µM) | COc1ccc(-c2csc(Nc3ccc(C)cn3)n2)cc1OC
> 49.7 | CN1C(C(=O)Nc2ccccn2)=C(O)c2ccccc2S1(=O)=O
37.9 (≈ 133 µM) | Cc1cc(C)nc(SCc2cn3c(C)cccc3n2)n1
1.9 (≈ 4.77 µM) | Cc1cc(C)c(C(N)=O)c(SCC(=O)c2cc(C)n(-c3cc(C)on3)c2C)n1
> 51.4 | COc1ccc(CN(C)CC(=O)NC(C)c2ccccc2)cc1OC (configuration not stated)
> 57.6 | O=C(O)c1cc(S(=O)(=O)NCC2COc3ccccc3O2)ccc1Cl (configuration not stated)
19.5 (≈ 60.4 µM) | CC(C(=O)NCC1CCCCC1)N(C)Cc1ccc(Cl)cc1 (configuration not stated)
52.7 (≈ 105 µM) | C=CCN(c1ccccc1OC)S(=O)(=O)c1cccc(C(=O)OCC(=O)N2CC(C)OC(C)C2)c1 (configuration not stated)
30.4 (≈ 104 µM) | CCC(=O)Nc1c(-c2ccc(C)cc2)nc2ccc(C)cn12
43.2 (≈ 144 µM) | COC(=O)c1cc(S(=O)(=O)N2CCCC(C)C2)cn1C (configuration not stated)
> 39.6 | COC(=O)CN1CC(=O)N(c2ccccc2)C1=S
6.6 (≈ 19.8 µM) | O=C(CCCCN1CCCCC1)c1ccc2c(c1)Cc1ccccc1-2
> 42.1 | CCc1cc(N2CCOCC2)cc2c1[nH]c1ccccc12
> 52.1 | COc1ccc(NC(=O)c2ccccc2-c2ccccc2C(=O)O)cc1
34.8 (≈ 79.7 µM) | COc1ccc(NC(=O)CCOc2ccccc2F)cc1S(=O)(=O)N1CCCCC1
41.9 (≈ 148 µM) | CCn1c(COc2ccccc2OC)nc2ccccc21
35.8 (≈ 133 µM) | CCCC(=O)OCC(=O)NCc1ccc(Cl)cc1
1.9 (≈ 5.89 µM) | Cc1cccc(CCNC(=O)c2oc3c(C)c(C)ccc3c2C)n1
0.8 (≈ 2.55 µM) | CCOc1ccccc1NC(=O)NCc1ccc2c(c1)OCO2

Structure (SMILES) | solubility kinetic [µg/mL]
CCOC(=O)c1ccc(NC(=O)N2C[C@@H]3C[C@@H](C2)c2cccc(=O)n2C3)cc1 | > 57.2
COP(=O)(OC)C(NC(C)=O)C(Cl)(Cl)Cl (configuration not stated) | > 44.8
